Measurements as given in PMC12302426, “Dihydrokoumine, a dual-target analgesic with reduced side effects isolated from a traditional Chinese medicine” (Journal of Advanced Research, 2024).

Assays:
HEK293 cells = experiment: DMR assay in untransfected HEK293 cells (background); format: cell-based; conditions: HEK293 cells without MOR
Experimental: (§1) DMR assays were performed using an Epic® BT system (Corning, NY, USA). All used cell lines were directly seeded in Epic 384-well biosensor microplates with a seeding density of 25,000 cells per well. After being cultured for about 22 h, the cells formed a monolayer with a confluency of about 95 % in the cell culture medium. Then the cells were manually washed using assay buffer (1 × HBSS buffer, 10 mM HEPES, pH = 7.4) and maintained in 30 μL of the assay buffer for 1 h. All samples were dissolved in DMSO and diluted freshly with the assay buffer containing 0.1 % BSA.
The DMR assays were conducted as follows. […] In the case of the DMR desensitization assay, cells were pretreated with analytes for one hour before introducing a specific agonist at the indicated concentration, and the agonist-induced DMR signals were monitored for one hour. Finally, for the DMR antagonist assay, cells underwent a 1-hour pretreatment with an antagonist before the addition of a specific agonist at the indicated concentration, and subsequent DMR signals were recorded over one hour.

MOR = target: T1, MOR (Homo sapiens, UniProt P35372); experiment: Radioligand binding assay, [3H] DAMGO; conditions: [3H] DAMGO 0.5 nM
T1 construct: expressed in transfected cells; host or cells: HEK293 cell membranes
Experimental: (§2) Radioligand binding assays were conducted using MicroBeta2 (PerkinElmer, USA). Membrane protein preparations MOR and M3R were each prepared at a concentration of 2.5 µg/well. The radio ligands [^3H] DAMGO (specific for MOR) and [^3H]-NMS (specific for M3R) were prepared at concentrations of 0.5 nM and 0.2 nM, respectively. […] For each well, 1 µL of the serially diluted test compounds was transferred, followed by the addition of 100 µL of membrane stock solution and 100 µL of radioligand. The plates were sealed and shaken at 300 rpm at room temperature for one hour. Upon completion of the binding assay, the contents of each well were filtered through Unifilter-96 GF/C filter plates (PerkinElmer, USA). The filter plates were dried for one hour at 50°C and sealed. The trapped ^3H (tritium) on the filters was then quantified using the MicroBeta2. The percentage of inhibition or binding was subsequently calculated.

M3R = target: T2, M3R (Homo sapiens, UniProt P20309); experiment: Radioligand binding assay, [3H] NMS; conditions: [3H] NMS 0.2 nM
T2 construct: expressed in transfected cells; host or cells: HEK293 cell membranes
Experimental: as §2

M1R = target: T3, M1R (Homo sapiens, UniProt P11229); experiment: FLIPR assay in CHO-M1 cells (carbachol-induced Ca2+); format: cell-based; conditions: DK pretreatment one hour
T3 construct: expressed in transfected cells
Experimental: (§3) FLIPR assay was carried out as reported earlier. Cell lines were seeded in 96-well plates with black walls (Greiner, USA) at 8.0 × 10^4 cells per well. After approximately 22 h of incubation, the cells were exposed to Calcium-6 dye (Molecular Devices, USA) in HBSS buffer supplemented with 20 mM HEPES (pH 7.4) at 37°C for one hour. Samples, redissolved in DMSO and housed in 96-well drug plates, underwent dilution with FLIPR buffer and subsequent automated introduction to the cells. […] […] Results were presented as fluorescence (arbitrary units) plotted against time.

M2R = target: T4, M2R (Homo sapiens, UniProt P08172); experiment: FLIPR assay in HEK293-M2 cells (carbachol-induced Ca2+); format: cell-based; conditions: DK pretreatment one hour
T4 construct: expressed in transfected cells
Experimental: as §3

M4R = target: T5, M4R (Homo sapiens, UniProt P08173); experiment: FLIPR assay in HEK293-M4 cells (carbachol-induced Ca2+); format: cell-based; conditions: DK pretreatment one hour
T5 construct: expressed in transfected cells
Experimental: as §3

orphan receptor GPR35 = target: T6, orphan receptor GPR35 (Homo sapiens, UniProt Q9HC97); experiment: DMR desensitization assay, CHO-K1-hGPR35, probe zaprinast; format: cell-based; conditions: 100 μM DK
T6 construct: expressed in transfected cells; host or cells: CHO-K1-hGPR35
Experimental: as §1
(§4) The receptor selectivity was evaluated against a set of G protein-coupled receptors (GPCRs), including opioid receptor (Delta/Kappa/NOP), dopamine receptor (D1/D2), orphan receptor (GPR35), adrenergic receptor (α2A/β2), serotonin receptor (5HT2A), histamine receptor (H1) and cannabinoid receptor (CB1). Following a 1-hour pretreatment with DK, a 2-min baseline was established before introducing probes and monitoring DMR signals for another hour. The cells and probes were as follows: Delta, HEK293-Delta, SNC162; Kappa, HEK293-Kappa, ICI199441; NOP, HEK293-NOP, MCOPPB; D1, HEK293-D1, dopamine; D2, HEK293-D2, dopamine; GPR35, CHO-K1-hGPR35, zaprinast; 5HT2A, HEK293-5HT2A, 5-hydroxytryptamine; α2A, HEK293-α2A, L-Noradrenaline; β2, A431, isoprenaline; H1, A431, histamine; CB1, CHO-K1-CB1, CP 55940. […]

adrenergic receptor β2 = target: T7, adrenergic receptor β2 (Homo sapiens, UniProt P07550); experiment: DMR desensitization assay, A431, probe isoprenaline; format: cell-based; conditions: 100 μM DK
T7 construct: endogenous in cells; host or cells: A431
Experimental: as §1, §4

cannabinoid receptor CB1 = target: T8, cannabinoid receptor CB1 (Homo sapiens, UniProt P21554); experiment: DMR desensitization assay, CHO-K1-CB1, probe CP 55940; format: cell-based; conditions: 100 μM DK
T8 construct: expressed in transfected cells; host or cells: CHO-K1-CB1
Experimental: as §1, §4

[1] = Pharmacokinetics, blood-brain barrier permeability; format: in vivo, C57BL/6 male mice
Experimental: Blood‐brain barrier permeability evaluation was as follows. C57BL/6 male mice (about 25 g) were used in evaluation of blood‐brain barrier permeability (n = 3). Mice were given a single dose of DK (20 mg/kg, 5 mL/kg, i.p.) through intraperitoneal injection. Blood (300 μL) was collected at 0.167, 0.5, 1, 2, 3 and 4 h into EDTA tubes. Plasma was obtained by mixing with acetonitrile and centrifugation (3000 r/min, 10 min). Meanwhile, brains were excised after saline perfusion at these time points. Brain samples were grinded (70 Hz, 90 s) and sonicated (30 s) to break up the tissue, followed by centrifugation (15,000 r/min, 10 min, […]) to obtain brain sample.
Brain and plasma drug levels were measured by LC-30AD (Shimadzu Corporation Kyoto, Japan) and SCIEX QTRAP-6500 (AB Sciex, Foster City, CA, USA) and calculated by comparing with internal standard (koumine, 200 ng/mL). The used column was Waters ACQUITY UPLC BEH C18 (2.1*150 mm, 1.7 μm); the mobile phase was composed of (A) 0.1 % FA in water and (B) 0.1 % FA in ACN; the elution gradient was 20 % B (0–3 min), 20–40 % B (3–5 min), 40–95 % B (5–6 min); the flow rate was 0.3 mL/min; and detection was in the positive mode.

T1 sequence (P35372 whole entry): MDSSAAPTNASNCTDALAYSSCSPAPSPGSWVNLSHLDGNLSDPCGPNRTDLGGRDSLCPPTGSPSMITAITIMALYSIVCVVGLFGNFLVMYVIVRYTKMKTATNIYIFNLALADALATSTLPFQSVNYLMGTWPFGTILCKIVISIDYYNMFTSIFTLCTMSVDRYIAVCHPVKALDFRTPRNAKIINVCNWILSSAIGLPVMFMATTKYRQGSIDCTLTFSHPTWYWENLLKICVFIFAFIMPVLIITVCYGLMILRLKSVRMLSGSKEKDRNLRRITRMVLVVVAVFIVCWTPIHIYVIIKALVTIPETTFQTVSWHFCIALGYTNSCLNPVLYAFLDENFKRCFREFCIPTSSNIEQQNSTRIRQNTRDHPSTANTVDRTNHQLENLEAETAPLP
T2 sequence (P20309 whole entry): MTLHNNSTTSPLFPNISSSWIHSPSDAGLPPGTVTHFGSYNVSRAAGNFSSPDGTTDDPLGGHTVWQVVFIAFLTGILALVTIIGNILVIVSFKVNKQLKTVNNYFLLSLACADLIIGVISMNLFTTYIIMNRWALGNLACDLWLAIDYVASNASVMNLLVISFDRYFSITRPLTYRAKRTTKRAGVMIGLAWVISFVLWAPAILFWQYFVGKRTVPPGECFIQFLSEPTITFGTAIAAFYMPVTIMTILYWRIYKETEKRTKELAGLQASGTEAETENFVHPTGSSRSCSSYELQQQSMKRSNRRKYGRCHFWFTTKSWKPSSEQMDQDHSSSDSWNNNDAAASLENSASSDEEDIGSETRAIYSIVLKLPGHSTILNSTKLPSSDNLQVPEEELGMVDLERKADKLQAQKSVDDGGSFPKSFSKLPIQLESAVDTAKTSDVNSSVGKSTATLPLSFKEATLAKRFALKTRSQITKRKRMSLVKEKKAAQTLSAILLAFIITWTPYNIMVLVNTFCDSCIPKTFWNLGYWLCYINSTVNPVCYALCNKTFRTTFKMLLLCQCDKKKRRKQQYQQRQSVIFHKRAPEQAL
T8 sequence (P21554 whole entry): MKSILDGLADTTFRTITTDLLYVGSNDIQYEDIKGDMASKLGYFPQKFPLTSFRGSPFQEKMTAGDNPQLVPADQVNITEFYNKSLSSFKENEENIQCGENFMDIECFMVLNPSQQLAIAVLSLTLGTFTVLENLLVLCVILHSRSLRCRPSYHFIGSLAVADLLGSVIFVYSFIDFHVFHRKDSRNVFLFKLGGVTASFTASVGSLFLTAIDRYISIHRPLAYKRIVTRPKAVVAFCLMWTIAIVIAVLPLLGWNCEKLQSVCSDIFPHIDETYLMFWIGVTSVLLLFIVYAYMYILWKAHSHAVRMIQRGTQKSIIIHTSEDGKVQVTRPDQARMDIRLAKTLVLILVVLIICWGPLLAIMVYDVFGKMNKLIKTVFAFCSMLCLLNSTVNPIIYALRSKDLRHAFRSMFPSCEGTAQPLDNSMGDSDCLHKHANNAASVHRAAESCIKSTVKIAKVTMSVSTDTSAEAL
T5 sequence (P08173 whole entry): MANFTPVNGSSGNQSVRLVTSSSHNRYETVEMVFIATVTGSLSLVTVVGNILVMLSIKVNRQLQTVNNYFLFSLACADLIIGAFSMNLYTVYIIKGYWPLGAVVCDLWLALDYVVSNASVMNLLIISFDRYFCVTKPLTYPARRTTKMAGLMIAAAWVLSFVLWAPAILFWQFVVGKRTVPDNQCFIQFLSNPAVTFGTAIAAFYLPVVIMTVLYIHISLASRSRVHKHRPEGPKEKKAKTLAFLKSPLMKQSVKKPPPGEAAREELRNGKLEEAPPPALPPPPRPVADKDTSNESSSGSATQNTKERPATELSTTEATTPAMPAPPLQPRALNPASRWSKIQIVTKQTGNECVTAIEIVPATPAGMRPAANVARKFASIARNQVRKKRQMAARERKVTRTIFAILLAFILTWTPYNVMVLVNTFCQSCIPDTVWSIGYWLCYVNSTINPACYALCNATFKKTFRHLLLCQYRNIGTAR
T3 sequence (P11229 whole entry): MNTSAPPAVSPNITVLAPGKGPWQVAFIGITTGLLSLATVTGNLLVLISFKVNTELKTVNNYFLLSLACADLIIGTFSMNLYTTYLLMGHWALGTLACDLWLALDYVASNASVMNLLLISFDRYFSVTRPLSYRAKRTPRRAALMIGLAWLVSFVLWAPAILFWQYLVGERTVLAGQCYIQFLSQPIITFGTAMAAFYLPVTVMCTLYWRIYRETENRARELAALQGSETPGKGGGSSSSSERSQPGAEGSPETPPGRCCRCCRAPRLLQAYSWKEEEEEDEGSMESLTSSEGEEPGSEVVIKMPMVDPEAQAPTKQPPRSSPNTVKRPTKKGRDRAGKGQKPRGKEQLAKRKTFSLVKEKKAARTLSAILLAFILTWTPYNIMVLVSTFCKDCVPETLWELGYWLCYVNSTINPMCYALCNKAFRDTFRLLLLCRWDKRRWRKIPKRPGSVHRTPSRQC
T4 sequence (P08172 whole entry): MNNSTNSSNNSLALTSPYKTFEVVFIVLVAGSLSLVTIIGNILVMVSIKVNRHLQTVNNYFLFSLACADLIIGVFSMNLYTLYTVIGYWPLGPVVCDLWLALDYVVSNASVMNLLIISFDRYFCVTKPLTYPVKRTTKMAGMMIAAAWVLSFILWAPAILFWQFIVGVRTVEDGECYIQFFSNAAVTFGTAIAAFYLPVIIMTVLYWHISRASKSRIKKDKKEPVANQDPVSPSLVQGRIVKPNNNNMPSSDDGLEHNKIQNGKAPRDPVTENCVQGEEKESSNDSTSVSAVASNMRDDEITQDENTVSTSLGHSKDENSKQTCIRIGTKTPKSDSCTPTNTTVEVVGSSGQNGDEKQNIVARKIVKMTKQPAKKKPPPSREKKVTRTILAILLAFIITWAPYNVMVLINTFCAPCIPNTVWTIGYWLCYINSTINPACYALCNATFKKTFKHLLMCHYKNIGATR
T6 sequence (Q9HC97 whole entry): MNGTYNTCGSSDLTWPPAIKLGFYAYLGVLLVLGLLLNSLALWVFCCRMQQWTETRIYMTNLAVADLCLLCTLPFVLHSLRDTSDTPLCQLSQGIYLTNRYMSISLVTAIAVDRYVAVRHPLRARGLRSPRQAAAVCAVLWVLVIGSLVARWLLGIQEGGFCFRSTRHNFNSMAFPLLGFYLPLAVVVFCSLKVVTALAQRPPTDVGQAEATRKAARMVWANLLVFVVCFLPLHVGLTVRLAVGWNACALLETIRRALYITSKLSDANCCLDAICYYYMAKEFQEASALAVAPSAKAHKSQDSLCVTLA
T7 sequence (P07550 whole entry): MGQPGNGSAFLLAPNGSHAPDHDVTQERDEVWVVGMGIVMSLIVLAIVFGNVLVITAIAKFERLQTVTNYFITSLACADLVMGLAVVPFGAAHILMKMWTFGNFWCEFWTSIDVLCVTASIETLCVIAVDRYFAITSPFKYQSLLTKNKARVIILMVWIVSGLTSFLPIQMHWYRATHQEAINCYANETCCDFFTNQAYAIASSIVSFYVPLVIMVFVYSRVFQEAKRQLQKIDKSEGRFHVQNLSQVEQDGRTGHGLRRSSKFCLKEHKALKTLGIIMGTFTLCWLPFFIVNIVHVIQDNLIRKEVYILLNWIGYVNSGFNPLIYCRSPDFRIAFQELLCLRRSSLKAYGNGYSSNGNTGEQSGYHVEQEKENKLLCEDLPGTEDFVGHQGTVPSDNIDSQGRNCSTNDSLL

Q: Which results are given for `C=CC12CN(C)C3CC14c1ccccc1NC4C1CC2C3CO1` (centres unmarked) [DK]?
A: background DMR response (HEK293 cells): No background response; Ki (MOR): 0.0857 ± 0.0361 µM; efficacy (maximal inhibition of radioligand binding) (MOR): 100%; Ki (M3R): 55.2 ± 11 µM; efficacy (maximal inhibition of radioligand binding) (M3R): 74.6%; inhibition of carbachol-induced Ca2+ response (M1R): could not concentration-dependently inhibit; inhibition of carbachol-induced Ca2+ response (M2R): could not concentration-dependently inhibit; inhibition of carbachol-induced Ca2+ response (M4R): could not concentration-dependently inhibit; reduction of probe DMR response (desensitization) (orphan receptor GPR35): almost unable to reduce the response; reduction of probe DMR response (desensitization) (adrenergic receptor β2): almost unable to reduce the response; reduction of probe DMR response (desensitization) (cannabinoid receptor CB1): almost unable to reduce the response; Kp ([1]; male, C57BL/6, mouse, brain/plasma, ip, 20 mg/kg, read-out: Kp (AUCbrain/AUCplasma)): 1.27; AUC ([1]; male, C57BL/6, mouse, ip, mice, plasma, i.p., 20 mg/kg (method), read-out: (AUC)0-4 h in plasma): 733 ng·h/mL; (AUC)0-4 h in brain ([1]; mice, brain, i.p., 20 mg/kg (method)): 933.4 ng·h/g
